Measured values taken from ChEMBL document CHEMBL5393457, “Combined inhibition of amino acid transporters for inhibiting human plasmacytoid dendritic cell activity during autoimmunity” (2022).
One block for each compound: values may come before it. Active and inactive are the calls of the source. The rule behind the calls is not given here.

What was measured:
[1] = target: Large neutral amino acids transporter small subunit 1 (Homo sapiens) (UniProt Q01650); experiment: Inhibition of SLC7A5 in CpG-A-stimulated human plasmacytoid dendritic cells at 5 to 10 uM assessed as decrease in kynurenine transport; assay type: cell-based; details: Plasmacytoid dendritic cell, dose 5-10 µM
[2] = target: Large neutral amino acids transporter small subunit 1 (Homo sapiens) (UniProt Q01650); experiment: Inhibition of SLC7A5 in CpG-A-stimulated human plasmacytoid dendritic cells at 5 to 10 uM assessed as decrease in pS6 levels; assay type: cell-based; details: Plasmacytoid dendritic cell, dose 5-10 µM
[3] = target: Large neutral amino acids transporter small subunit 1 (Homo sapiens) (UniProt Q01650); experiment: Inhibition of SLC7A5 in CpG-A-stimulated human plasmacytoid dendritic cells at 5 to 10 uM assessed as decrease in IFN-alpha production; assay type: cell-based; details: Plasmacytoid dendritic cell, dose 5-10 µM
[4] = target: Large neutral amino acids transporter small subunit 1 (Homo sapiens) (UniProt Q01650); experiment: Inhibition of SLC7A5 in CpG-A-stimulated human plasmacytoid dendritic cells at 5 to 10 uM assessed as decrease in TNF production; assay type: cell-based; details: Plasmacytoid dendritic cell, dose 5-10 µM
[5] = system: Plasmacytoid dendritic cell; experiment: Inhibition of SLC7A5/SLC3A2 in IL-3 and CpG-A-stimulated human plasmacytoid dendritic cells at 1 to 2 uM assessed as decrease in IFN-alpha production in presence of 100 uM sulfasalazine; assay type: cell-based; details: dose 1-2 µM
[6] = system: Plasmacytoid dendritic cell; experiment: Inhibition of SLC7A5/SLC3A2 in IL-3 and CpG-A-stimulated human plasmacytoid dendritic cells at 1 to 2 uM assessed as decrease in TNF production in presence of 100 uM sulfasalazine; assay type: cell-based; details: dose 1-2 µM
[7] = target: T1, Janus Kinase (JAK) (Homo sapiens) (UniProt P52333+P23458+O60674+P29597); experiment: Inhibition of JAK in IL-3 and CpG-A-stimulated human plasmacytoid dendritic cells at 0.2 to 20 uM assessed as decrease in IFN-alpha production; assay type: cell-based; details: Plasmacytoid dendritic cell, dose 0.2-20 µM
[8] = target: T1, Janus Kinase (JAK) (Homo sapiens); experiment: Inhibition of JAK in IL-3 and CpG-A-stimulated human plasmacytoid dendritic cells at 0.2 to 20 uM assessed as decrease in TNF production; assay type: cell-based; details: Plasmacytoid dendritic cell, dose 0.2-20 µM
[9] = target: T2, Cystine/glutamate transporter (Homo sapiens) (UniProt Q9UPY5); experiment: Inhibition of XCT in CpG-A-activated human plasmacytoid dendritic cells at 200 uM assessed as decrease in IFN-alpha production; assay type: cell-based; details: Plasmacytoid dendritic cell
T2 sequence (whole entry): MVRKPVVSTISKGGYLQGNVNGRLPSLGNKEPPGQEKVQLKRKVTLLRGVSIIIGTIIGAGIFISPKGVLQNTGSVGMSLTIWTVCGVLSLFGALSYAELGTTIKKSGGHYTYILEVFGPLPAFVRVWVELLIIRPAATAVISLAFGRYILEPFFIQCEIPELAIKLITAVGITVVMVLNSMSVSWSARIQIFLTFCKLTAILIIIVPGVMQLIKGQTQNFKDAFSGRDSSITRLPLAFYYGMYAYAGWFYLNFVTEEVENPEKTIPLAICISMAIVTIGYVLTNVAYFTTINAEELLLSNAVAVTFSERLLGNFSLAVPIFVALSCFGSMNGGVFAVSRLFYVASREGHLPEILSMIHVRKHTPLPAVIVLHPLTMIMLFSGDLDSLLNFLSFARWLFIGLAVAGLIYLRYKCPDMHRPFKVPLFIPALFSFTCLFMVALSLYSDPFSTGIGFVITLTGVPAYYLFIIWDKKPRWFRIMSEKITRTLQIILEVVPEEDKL

[10] = target: T2, Cystine/glutamate transporter (Homo sapiens); experiment: Inhibition of XCT in CpG-A-activated human plasmacytoid dendritic cells at 200 uM assessed as decrease in TNF production; assay type: cell-based; details: Plasmacytoid dendritic cell
[11] = target: T2, Cystine/glutamate transporter (Homo sapiens); experiment: Inhibition of XCT in CpG-A-activated human plasmacytoid dendritic cells at 200 uM assessed as decrease in S6 phosphorylation; assay type: cell-based; details: Plasmacytoid dendritic cell
[12] = target: T2, Cystine/glutamate transporter (Homo sapiens); experiment: Inhibition of XCT in CpG-A-activated human plasmacytoid dendritic cells at 200 uM assessed as decrease in kynurenine uptake; assay type: cell-based; details: Plasmacytoid dendritic cell
[13] = target: T2, Cystine/glutamate transporter (Homo sapiens); experiment: Inhibition of XCT in CpG-A-activated human plasmacytoid dendritic cells at 200 uM assessed as decrease in ENPP2 expression; assay type: cell-based; details: Plasmacytoid dendritic cell
[14] = target: T2, Cystine/glutamate transporter (Homo sapiens); experiment: Inhibition of XCT in CpG-A-activated human plasmacytoid dendritic cells at 200 uM assessed as decrease in MYO1E expression; assay type: cell-based; details: Plasmacytoid dendritic cell
[15] = target: T2, Cystine/glutamate transporter (Homo sapiens); experiment: Inhibition of XCT in CpG-A-activated human plasmacytoid dendritic cells at 100 uM assessed as decrease in IFN-alpha production in presence of 25 to 100 uM baricitinib; assay type: cell-based; details: Plasmacytoid dendritic cell
[16] = target: Tyrosine-protein kinase JAK2 (Homo sapiens) (UniProt O60674); experiment: Inhibition of JAK2 in CpG-A-activated human plasmacytoid dendritic cells at 100 uM assessed as decrease in TNF production in presence of 25 to 100 uM baricitinib; assay type: cell-based; details: Plasmacytoid dendritic cell
[17] = target: T2, Cystine/glutamate transporter (Homo sapiens); experiment: Inhibition of XCT in IL-3 CpG-A-activated human plasma at 200 uM assessed as decrease in pDC activation
[18] = target: T2, Cystine/glutamate transporter (Homo sapiens); experiment: Inhibition of XCT in IL-3 CpG-A-activated human plasma at 100 uM assessed as decrease in pDC activation in presence of 0.1 uM baricitinib
[19] = target: T2, Cystine/glutamate transporter (Homo sapiens); experiment: Inhibition of XCT in IL-3 and CpG-A-stimulated human plasmacytoid dendritic cells at 100 uM assessed as decrease in IFN-alpha production in presence of 1 to 2 uM AC-4-130; assay type: cell-based; details: Plasmacytoid dendritic cell
[20] = target: T2, Cystine/glutamate transporter (Homo sapiens); experiment: Inhibition of XCT in IL-3 and CpG-A-stimulated human plasmacytoid dendritic cells at 100 uM assessed as decrease in TNF production in presence of 1 to 2 uM AC-4-130; assay type: cell-based; details: Plasmacytoid dendritic cell
[21] = target: T2, Cystine/glutamate transporter (Homo sapiens); experiment: Inhibition of XCT in IL-3 and CpG-A-stimulated human plasmacytoid dendritic cells at 100 uM assessed as decrease in IFN-alpha production in presence of 1 to 2 uM pimozide; assay type: cell-based; details: Plasmacytoid dendritic cell
[22] = target: T2, Cystine/glutamate transporter (Homo sapiens); experiment: Inhibition of XCT in IL-3 and CpG-A-stimulated human plasmacytoid dendritic cells at 100 uM assessed as decrease in TNF production in presence of 1 to 2 uM pimozide; assay type: cell-based; details: Plasmacytoid dendritic cell
[23] = target: T2, Cystine/glutamate transporter (Homo sapiens); experiment: Inhibition of XCT in IL-3 and CpG-A-stimulated human plasmacytoid dendritic cells at 100 uM assessed as decrease in IFN-alpha production in presence of 10 to 50 nM IQDMA; assay type: cell-based; details: Plasmacytoid dendritic cell
[24] = target: T2, Cystine/glutamate transporter (Homo sapiens); experiment: Inhibition of XCT in IL-3 and CpG-A-stimulated human plasmacytoid dendritic cells at 100 uM assessed as decrease in TNF production in presence of 10 to 50 nM IQDMA; assay type: cell-based; details: Plasmacytoid dendritic cell
[25] = target: T2, Cystine/glutamate transporter (Homo sapiens); experiment: Inhibition of XCT in IL-3 and CpG-A-stimulated human plasmacytoid dendritic cells at 100 uM assessed as decrease in IFN-alpha production in presence of 1 to 2 uM JPH203; assay type: cell-based; details: Plasmacytoid dendritic cell
[26] = target: T2, Cystine/glutamate transporter (Homo sapiens); experiment: Inhibition of XCT in IL-3 and CpG-A-stimulated human plasmacytoid dendritic cells at 100 uM assessed as decrease in TNF production in presence of 1 to 2 uM JPH203; assay type: cell-based; details: Plasmacytoid dendritic cell
[27] = target: T2, Cystine/glutamate transporter (Homo sapiens); experiment: Inhibition of XCT in IL-3 and CpG-A-stimulated human plasmacytoid dendritic cells assessed as decrease in IFN-alpha production in presence of mavrilimumab; assay type: cell-based; details: Plasmacytoid dendritic cell
[28] = target: T2, Cystine/glutamate transporter (Homo sapiens); experiment: Inhibition of XCT in IL-3 and CpG-A-stimulated human plasmacytoid dendritic cells assessed as decrease in TNF production in presence of mavrilimumab; assay type: cell-based; details: Plasmacytoid dendritic cell
[29] = target: T2, Cystine/glutamate transporter (Homo sapiens); experiment: Inhibition of XCT in IL-3 and CpG-A-stimulated human plasmacytoid dendritic cells at 100 uM assessed as decrease in IFN-alpha production in presence of 0.2 to 5 ug/ml IGN523; assay type: cell-based; details: Plasmacytoid dendritic cell
[30] = target: T2, Cystine/glutamate transporter (Homo sapiens); experiment: Inhibition of XCT in IL-3 and CpG-A-stimulated human plasmacytoid dendritic cells at 100 uM assessed as decrease in TNF production in presence of 0.2 to 5 ug/ml IGN523; assay type: cell-based; details: Plasmacytoid dendritic cell

Sequence of Large neutral amino acids transporter small subunit 1 (Homo sapiens) (Q01650 whole entry): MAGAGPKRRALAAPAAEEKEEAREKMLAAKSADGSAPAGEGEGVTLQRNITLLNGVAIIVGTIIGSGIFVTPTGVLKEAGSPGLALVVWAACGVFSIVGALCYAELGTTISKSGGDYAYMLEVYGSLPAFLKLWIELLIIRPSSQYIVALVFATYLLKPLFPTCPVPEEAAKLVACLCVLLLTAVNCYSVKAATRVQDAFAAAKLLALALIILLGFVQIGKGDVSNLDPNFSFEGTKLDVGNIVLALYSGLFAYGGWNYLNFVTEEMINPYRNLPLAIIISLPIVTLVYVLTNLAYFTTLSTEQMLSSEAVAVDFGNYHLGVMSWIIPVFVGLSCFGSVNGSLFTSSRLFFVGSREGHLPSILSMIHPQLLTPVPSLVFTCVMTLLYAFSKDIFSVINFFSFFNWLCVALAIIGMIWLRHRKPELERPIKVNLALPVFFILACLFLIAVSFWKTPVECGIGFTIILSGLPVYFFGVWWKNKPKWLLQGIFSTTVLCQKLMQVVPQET
Sequence of Tyrosine-protein kinase JAK2 (Homo sapiens) (O60674 whole entry): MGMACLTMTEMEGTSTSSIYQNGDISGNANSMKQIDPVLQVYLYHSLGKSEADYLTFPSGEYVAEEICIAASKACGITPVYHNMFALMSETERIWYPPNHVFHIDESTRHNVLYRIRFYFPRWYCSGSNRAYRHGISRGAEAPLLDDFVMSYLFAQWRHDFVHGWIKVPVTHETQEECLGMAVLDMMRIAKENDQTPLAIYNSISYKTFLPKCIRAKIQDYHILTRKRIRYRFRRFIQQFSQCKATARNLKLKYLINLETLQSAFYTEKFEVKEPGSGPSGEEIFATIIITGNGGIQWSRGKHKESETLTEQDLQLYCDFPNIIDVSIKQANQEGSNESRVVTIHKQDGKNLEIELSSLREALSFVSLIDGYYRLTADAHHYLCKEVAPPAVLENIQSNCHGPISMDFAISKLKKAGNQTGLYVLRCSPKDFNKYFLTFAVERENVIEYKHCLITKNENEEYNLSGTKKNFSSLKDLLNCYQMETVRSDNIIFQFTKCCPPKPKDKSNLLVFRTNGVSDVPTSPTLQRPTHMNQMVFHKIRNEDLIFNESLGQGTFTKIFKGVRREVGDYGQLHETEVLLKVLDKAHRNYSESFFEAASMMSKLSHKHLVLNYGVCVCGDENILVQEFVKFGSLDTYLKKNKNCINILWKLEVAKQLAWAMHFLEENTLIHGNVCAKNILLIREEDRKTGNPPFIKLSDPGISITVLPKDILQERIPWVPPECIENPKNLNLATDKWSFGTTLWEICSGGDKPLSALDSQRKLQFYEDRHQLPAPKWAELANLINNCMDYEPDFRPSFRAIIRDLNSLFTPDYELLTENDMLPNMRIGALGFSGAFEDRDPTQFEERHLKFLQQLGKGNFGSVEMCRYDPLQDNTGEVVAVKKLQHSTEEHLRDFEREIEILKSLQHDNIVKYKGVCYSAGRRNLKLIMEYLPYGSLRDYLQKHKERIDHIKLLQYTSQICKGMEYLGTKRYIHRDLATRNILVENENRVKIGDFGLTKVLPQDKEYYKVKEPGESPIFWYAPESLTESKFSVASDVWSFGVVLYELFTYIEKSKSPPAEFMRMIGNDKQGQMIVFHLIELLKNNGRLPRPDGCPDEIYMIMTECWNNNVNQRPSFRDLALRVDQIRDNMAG

- inhibition [1]: Active
- inhibition [2]: Active
- inhibition [3]: Active
- inhibition [4]: Active
SMILES: Nc1cc(COc2c(Cl)cc(C[C@H](N)C(=O)O)cc2Cl)c2oc(-c3ccccc3)nc2c1
- inhibition [5]: Active
- inhibition [6]: Active

- inhibition [7]: Active
- inhibition [8]: Active
SMILES: CN(Cc1cnc2nc(N)nc(N)c2n1)c1ccc(C(=O)N[C@@H](CCC(=O)O)C(=O)O)cc1

- inhibition [9]: Active
- inhibition [10]: Active
- inhibition [11]: Active
- inhibition [12]: Active
- inhibition [13]: Active
- inhibition [14]: Active
- inhibition [15]: Active
- inhibition [16]: Active
- inhibition [17]: Active
- inhibition [18]: Active
- inhibition [19]: Active
- inhibition [20]: Active
- inhibition [21]: Active
- inhibition [22]: Active
- inhibition [23]: Active
- inhibition [24]: Active
- inhibition [25]: Active
- inhibition [26]: Active
- inhibition [27]: Active
- inhibition [28]: Active
- inhibition [29]: Active
- inhibition [30]: Active
SMILES: O=C(O)c1cc(/N=N/c2ccc(S(=O)(=O)Nc3ccccn3)cc2)ccc1O
